Key:
[1] = Inhibition of 20S proteasome in human MIAPaCa2 cells after 90 mins by fluorescence-based […]; type: cell-based; conditions: mia paca-2
MIA PaCa-2 = experiment: Cytotoxicity against human MIAPaCa2 cells assessed as reduction in cell viability after 72 hrs by MTT assay; type: functional, cell-based; conditions: MIA PaCa-2, 72 h
NIH3T3 = experiment: Cytotoxicity against mouse NIH/3T3 cells assessed as reduction in cell viability after 72 hrs by MTT assay; type: cell-based; conditions: nih3t3, 72 h

| Compound | IC50 [1] | IC50 (MIA PaCa-2) | Activity (NIH3T3) |
| --- | --- | --- | --- |
| CCCCCCC/C=C/C=C/C(=O)N[C@H](C(=O)N[C@H]1CCCCNC(=O)/C=C/[C@H](C)NC1=O)[C@@H](C)O [LUMINMYCIN A] | 88 nM | 18 nM | Non-toxic |
| CCCCCCC/C=C/C=C/C(=O)N[C@H](C(=O)N[C@H]1C[C@@H](O)CCNC(=O)/C=C/[C@H](C)NC1=O)[C@@H](C)O [GLIDOBACTIN A] | 69 nM | 7 nM | Non-toxic |
| CC(C)CCCCC/C=C/C=C/C(=O)N[C@H](C(=O)N[C@H]1CCCCNC(=O)/C=C/[C@H](C)NC1=O)[C@@H](C)O [LUMINMYCIN D] | 380 nM | 110 nM | Non-toxic |
